Measurements taken from patent US7968601B2, “Adamantyl acetamides as 11-β hydroxysteroid dehydrogenase inhibitors” (Janssen Pharmaceutica N.V., priority 2002, dated 2011).

Legend:
[1] = target: 11b-HSD1 (Homo sapiens, UniProt P28845); test: Enzymatic assay, 11b-HSD1 reductase activity (conversion of cortisone into cortisol); format: biochemical; settings: pIC50 scored 1-3, read-out: [C1] HSD1-prot Reduct Score
Method: The effects of compounds on 11b-HSD1 dependent conversion of cortisone into cortisol (reductase activity) was studied in a reaction mixture containing 30 mM Tris-HCl buffer pH 7.2, 180 μM NADPH, 1 mM EDTA, 2 μM cortisone, 1 μl drug and/or solvent and 11 μg recombinant protein in a final volume of 100 μl.
(§1) All incubations were performed for 45 min at 37 C in a water bath. The reaction was stopped by adding 100 μl acetonitrile containing 20 μg corticosterone as internal standard. After centrifugation, the product formation was analysed in the supernatant by HPLC on a Hypersyl BDS-C18 column using 0.05 mM ammonium acetate/methanol (50/50) as solvent. In all of the aforementioned assays, the drugs to be tested were taken from a stock solution and tested at a final concentration ranging from […] to 3.10^−9M. From the thus obtained dose response curves, the pIC50 value was calculated and scored as follows; Score 1=pIC50 value<5, Score 2=pIC50 value in the range of 5 to 6, Score 3=pIC50 value>6. (in this table NT stands for Not Tested).

[2] = target: T1, 11b-HSD2 (Homo sapiens, UniProt P80365); test: Enzymatic assay, 11b-HSD2 dependent dehydrogenase activity; format: biochemical; settings: 11b-HSD2 dehydrogenase activity, pIC50 scored 1-3, read-out: [C1] HSD2 prot Dehydro Score
T1 sequence (P80365 1-405): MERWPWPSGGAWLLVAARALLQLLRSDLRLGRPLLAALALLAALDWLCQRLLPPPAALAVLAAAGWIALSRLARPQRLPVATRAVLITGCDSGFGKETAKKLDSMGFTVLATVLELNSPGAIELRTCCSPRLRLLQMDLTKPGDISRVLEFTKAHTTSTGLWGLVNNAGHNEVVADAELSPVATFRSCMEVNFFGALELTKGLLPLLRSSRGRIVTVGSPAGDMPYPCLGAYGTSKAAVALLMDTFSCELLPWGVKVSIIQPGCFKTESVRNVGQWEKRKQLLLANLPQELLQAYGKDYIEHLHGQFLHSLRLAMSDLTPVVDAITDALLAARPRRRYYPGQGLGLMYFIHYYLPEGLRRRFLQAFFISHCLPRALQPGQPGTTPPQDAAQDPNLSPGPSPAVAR
Method: The effects on the 11b-HSD2 dependent dehydrogenase activity was studied in a reaction mixture containing 0.1M sodium phosphate buffer pH 7.5, 300 μM NAD, 100 nM cortisol (of which 2 nM is 3H-radio labelled), 1 μl drug and/or solvent and 2.5 μg recombinant protein in a final volume of 100 μl.
as §1

[3] = target: T2, 11b-HSD1 (Mus musculus, UniProt P50172); test: Cellular assay, 11b-HSD1 activity in differentiated 3T3-L1 cells; format: cell-based; settings: 4 hour pre-incubation, pIC50 scored 1-3, read-out: [C2] HSD1 cellular 3T3-L1 Score
T2 construct: endogenous in cells; host or cells: 3T3-L1 (ATCC-CL-173), differentiated into adipocytes
Method: The effects on 11b-HSD1 activity was measured in differentiated 3T3-L1 cells and rat hepatocytes.
Mouse fibroblast 3T3-L1 cells (ATCC-CL-173) were seeded at a density of 16500 cells/ml in 12 well plates and grown for 7 days in DMEM medium (supplemented with 10% heat inactivated foetal calf serum, 2 mM glutamine and 25 mg gentamycin) at 37 C in a humidified 5% CO2 atmosphere. Medium was refreshed twice a week. Fibroblasts were differentiated into adipocytes at 37 C in a 5% CO2 humidified atmosphere in growth medium containing 2 μg/ml insulin, 55 μg/ml IBMX and 39.2 μg/ml dexamethasone.
Following a 4 hour pre-incubation with test compound, 0.5 μCi ^3H-cortisone or dehydrocorticosterone, was added to the cultures. One hour later, the medium was extracted on Extrelut^3-columns with 15 ml diethyl ether and the extract was analysed by HPLC as described above.
(§2) As for the enzymatic assays, the compounds to be tested were taken from a stock solution and tested at a final concentration ranging from […] to 3.10^−9M. From the thus obtained dose response curves, the pIC50 value was calculated and scored as follows; Score 1=pIC50 value<5, Score 2=pIC50 value in the range of 5 to 6, Score 3=pIC50 value>6. (in this table NT stands for Not Tested).

[4] = target: T1, 11b-HSD2; test: Cellular assay, 11b-HSD2 activity in HepG2 cells; format: cell-based; parameters: endogenous in cells; host or cells: HepG2 (ATCC HB-8065); settings: 4 hour pre-incubation, pIC50 scored 1-3, read-out: [C2] HSD2 cellular HepG2 Score
Method: The effects on 11b-HSD2 activity was studied in HepG2 and LCC-PK1-cells HepG2-cells (ATCC HB-8065) were seeded in 12 well plates at a density of 100,000 cells/ml and grown at 37 C in a humidified 5% CO2 atmosphere in MEM-Rega-3 medium supplemented with 10% heat inactivated foetal calf serum, 2 mM L-glutamine and sodium bicarbonate). Medium was refreshed twice a week. Pig kidney cells (LCC-PK1, ATCC CRL-1392) were seeded at a density of 150,000 cells/ml in 12 well plates and grown at 37 C in a humidified 5% CO2 atmosphere in Medium 199 supplemented with Earls modified salt solution, 100 U/ml penicillin, 100 μg/ml streptomycin and 10% foetal calf serum. Medium was refreshed twice a week. Twenty four hours prior to the onset of the experiment, medium was changed by medium containing 10% charcoal stripped foetal calf serum.
Following a 4 hour pre-incubation with test compound, 0.5 μCi ^3H-cortisol or corticosterone, was added to the cultures. One hour later, the medium was extracted on Extrelut^3-columns with 15 ml diethyl ether and the extract was analysed by HPLC as described above.
as §2

T2 sequence (P50172 whole entry): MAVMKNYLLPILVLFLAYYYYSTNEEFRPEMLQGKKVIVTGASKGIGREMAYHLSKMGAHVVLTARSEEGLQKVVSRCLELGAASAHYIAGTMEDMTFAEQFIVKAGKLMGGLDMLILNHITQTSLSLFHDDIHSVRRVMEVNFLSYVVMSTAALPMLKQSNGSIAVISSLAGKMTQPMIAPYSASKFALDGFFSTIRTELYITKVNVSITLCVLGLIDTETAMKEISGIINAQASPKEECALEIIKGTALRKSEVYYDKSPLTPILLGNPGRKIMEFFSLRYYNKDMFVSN
Chain of 11b-HSD1 (Homo sapiens, UniProt P28845) (P28845 whole entry): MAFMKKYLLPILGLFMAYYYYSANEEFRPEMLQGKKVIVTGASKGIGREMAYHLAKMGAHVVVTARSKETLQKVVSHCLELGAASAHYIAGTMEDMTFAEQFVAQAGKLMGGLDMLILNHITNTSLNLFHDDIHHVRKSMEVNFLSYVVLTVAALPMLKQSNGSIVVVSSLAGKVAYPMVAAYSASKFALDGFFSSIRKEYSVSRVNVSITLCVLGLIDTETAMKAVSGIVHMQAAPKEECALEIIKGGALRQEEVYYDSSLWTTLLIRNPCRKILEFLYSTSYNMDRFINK

| IC50 [1] | IC50 [2] | IC50 [3] | IC50 [4] | Compound |
| --- | --- | --- | --- | --- |
| < 1 µM | > 10 µM | < 1 µM | > 10 µM | CC(C)(C(=O)NC1C2CC3CC(C2)CC1C3)c1cccc(CCN2CCOCC2)c1 (stereo not drawn) [Compound 191] |
| > 10 µM | > 10 µM | 1 to 10 µM | > 10 µM | NC(C(=O)NC1C2CC3CC(C2)CC1C3)c1ccccc1 (stereo not drawn) [Compound 50] |
| > 10 µM | > 10 µM | < 1 µM | > 10 µM | Cc1cc(CCC(=O)O)cc(C(C)(C)C(=O)N[C@H]2[C@@H]3CC4C[C@H]2C[C@](F)(C4)C3)c1 [Compound 254] |
| < 1 µM | > 10 µM | < 1 µM | > 10 µM | CC1CCC(C(=O)NC2C3CC4CC(C3)CC2C4)c2ccccc21 (stereo not drawn) [Compound 236] |
| > 10 µM | > 10 µM | < 1 µM | > 10 µM | CC(C)(C(=O)N[C@H]1[C@@H]2CC3C[C@H]1C[C@](O)(C3)C2)c1cccc(OCCN2CCOCC2)c1 [Compound 158] |
| < 1 µM | > 10 µM | < 1 µM | > 10 µM | O=C(NC1C2CC3CC(C2)CC1C3)C1CCCCc2ccccc21 (stereo not drawn) [Compound 169] |
| < 1 µM | > 10 µM | < 1 µM | > 10 µM | COc1cccc(C(C)(C)C(=O)NC2CCC3CCCC2C3)c1 (stereo not drawn) [Compound 74] |
| < 1 µM | > 10 µM | < 1 µM | > 10 µM | COc1ccc(C(C)(C)C(=O)NC2C3CC4CC(C3)CC2C4)cc1 (stereo not drawn) [Compound 47] |
| < 1 µM | > 10 µM | < 1 µM | > 10 µM | O=C(NC1C2CC3CC(C2)CC1C3)C1(c2cccnc2)CCCC1 (stereo not drawn) [Compound 126] |
| < 1 µM | > 10 µM | < 1 µM | > 10 µM | O=C(NC1C2CC3CC(C2)CC1C3)C1=CCCCc2ccccc21 (stereo not drawn) [Compound 168] |
| < 1 µM | > 10 µM | < 1 µM | > 10 µM | O=C(NC1C2CC3CC(C2)CC1C3)C1CCc2ccccc2C1 (stereo not drawn) [Compound 224] |
| < 1 µM | > 10 µM | < 1 µM | > 10 µM | CCOC(=O)CCc1cccc(C(C)(C)C(=O)NC2C3CC4CC(C3)CC2C4)c1 (stereo not drawn) [Compound 193] |
| > 10 µM | > 10 µM | < 1 µM | > 10 µM | CC(C)(C(=O)NC1C2CC3CC(C2)CC1C3)c1cc(F)ccc1F (stereo not drawn) [Compound 88] |
| < 1 µM | > 10 µM | < 1 µM | > 10 µM | CC(C)(C(=O)NC1C2CC3CC(C2)CC1C3)c1cccc2ccccc12 (stereo not drawn) [Compound 137] |

Continued, compound first:

| Compound | IC50 [1] | IC50 [2] | IC50 [3] | IC50 [4] |
| --- | --- | --- | --- | --- |
| CC(C)(C(=O)NC1C2CC3CC(C2)CC1C3)c1cccc(F)c1 (stereo not drawn) [Compound 84] | > 10 µM | > 10 µM | < 1 µM | > 10 µM |
| COc1cc(C)cc(C(C)(C)C(=O)NC2C3CC4CC(C3)CC2C4)c1 (stereo not drawn) [Compound 210] | > 10 µM | > 10 µM | < 1 µM | > 10 µM |
| Cc1cc(CCC(=O)N2CCOCC2)cc(C(C)(C)C(=O)N[C@H]2[C@@H]3CC4C[C@H]2C[C@](F)(C4)C3)c1 [Compound 251] | < 1 µM | > 10 µM | < 1 µM | > 10 µM |
| CN(C)c1cccc(C(C)(C)C(=O)NC2C3CC4CC(C3)CC2C4)c1 (stereo not drawn) [Compound 78] | < 1 µM | 1 to 10 µM | < 1 µM | > 10 µM |
| CC(C)(C(=O)NC1C2CC3CC(C2)CC1C3)c1ccc(F)cc1 (stereo not drawn) [Compound 41] | < 1 µM | > 10 µM | < 1 µM | > 10 µM |
| O=C(O)CCc1cccc2c1CCCC2C(=O)NC1C2CC3CC(C2)CC1C3 (stereo not drawn) [Compound 240] | > 10 µM | > 10 µM | < 1 µM | > 10 µM |
| CC1=C(C(=O)NC2C3CC4CC(C3)CC2C4)Cc2ccccc21 (stereo not drawn) [Compound 141] | < 1 µM | > 10 µM | < 1 µM | > 10 µM |
| COc1ccc(C(C)(C)C(=O)NC2C3CC4CC(C3)CC2C4)cc1OC (stereo not drawn) [Compound 86] | > 10 µM | > 10 µM | < 1 µM | > 10 µM |
| O=C(NC1C2CC3CC(C2)CC1C3)C1(c2ccncc2)CCCC1 (stereo not drawn) [Compound 127] | > 10 µM | > 10 µM | < 1 µM | > 10 µM |
| COc1cc(C)cc(C(C)(C)C(=O)N[C@H]2[C@@H]3CC4C[C@H]2C[C@](F)(C4)C3)c1 [Compound 263] | > 10 µM | > 10 µM | < 1 µM | > 10 µM |
| CN(C)c1ccc(C(C)(C)C(=O)NC2C3CC4CC(C3)CC2C4)cc1 (stereo not drawn) [Compound 52] | > 10 µM | > 10 µM | < 1 µM | > 10 µM |
| COc1ccc2c(c1)C(C(=O)NC1C3CC4CC(C3)CC1C4)CCC2 (stereo not drawn) [Compound 203] | > 10 µM | > 10 µM | < 1 µM | > 10 µM |
| CC(C)(C(=O)NC1C2CC3CC(C2)CC1C3)c1ccc(OCC(=O)O)cc1 (stereo not drawn) [Compound 72] | 1 to 10 µM | > 10 µM | < 1 µM | > 10 µM |
| O=C(NC1C2CC3CC(C2)CC1C3)C1=CCCc2c(Br)cccc21 (stereo not drawn) [Compound 223] | < 1 µM | > 10 µM | < 1 µM | > 10 µM |
| CCCOc1cccc(C(C)(C)C(=O)NC2C3CC4CC(C3)CC2C4)c1 (stereo not drawn) [Compound 53] | > 10 µM | > 10 µM | < 1 µM | > 10 µM |
| CC(C)(C(=O)NC1C2CCCC1CCC2)c1ccccc1 (stereo not drawn) [Compound 48] | > 10 µM | > 10 µM | < 1 µM | > 10 µM |
| CN(C)CCCOc1cccc(C(C)(C)C(=O)NC2C3CC4CC(C3)CC2C4)c1 (stereo not drawn) [Compound 92] | < 1 µM | > 10 µM | < 1 µM | > 10 µM |
| CC(C)(C(=O)NC1C2CC3CC(C2)CC1C3)c1cccc(C(F)(F)F)c1 (stereo not drawn) [Compound 85] | > 10 µM | > 10 µM | < 1 µM | > 10 µM |
| Cc1cc(CCC(=O)O)cc(C(C)(C)C(=O)NC2C3CC4CC(C3)CC2C4)c1 (stereo not drawn) [Compound 230] | < 1 µM | > 10 µM | < 1 µM | > 10 µM |
